Data as given in paper PMC4839630, “Investigation the Possibility of Using Peptides with a Helical Repeating Pattern of Hydro-Phobic and Hydrophilic Residues to Inhibit IL-10” (PLoS ONE, 2016).
Ends that are not written are not given here.

Legend:
[1] = target: IL-10 (Homo sapiens, UniProt P22301); assay: SPR binding to immobilised IL-10; parameters: purchased ebioscience BMS/346; conditions: SPR Biacore T100, CM5 chip, 1X PBS pH 7.4, 25°C, 10 μL/min; steady-state affinity analysis, three independent repeats
[2] = tested on: U937 cells; assay: 7-AAD cell-viability assay; assay type: cell-based, human; conditions: two independent assays, flow cytometry
Experimental: 7-AAD assay: 7-AAD Viability Staining Solution was purchased from eBioscience (Cat. 00–6993). Briefly, 5 μL of 7-aad were added to 5×10^5 cells for 5 minutes, and 7-aad staining was measured by a BD Accuri flow cytometry.
In order for a peptide to be useful as potential drug candidates, its cytotoxicity has to be low. We evaluated the cytotoxicity of P1 and P2 using 7-AAD cell-viability assay (S5 Fig).

[3] = target: T1, IL-10R1 (Homo sapiens, UniProt Q13651); assay: SPR binding to immobilised IL-10R1; conditions: SPR Biacore T100, CM5 chip, 1X PBS pH 7.4, 25°C, 10 μL/min; steady-state affinity analysis, three independent repeats
T1 construct: purchased Creative BioMart, USA IL10RA-212H
T1 sequence (Q13651 22-578): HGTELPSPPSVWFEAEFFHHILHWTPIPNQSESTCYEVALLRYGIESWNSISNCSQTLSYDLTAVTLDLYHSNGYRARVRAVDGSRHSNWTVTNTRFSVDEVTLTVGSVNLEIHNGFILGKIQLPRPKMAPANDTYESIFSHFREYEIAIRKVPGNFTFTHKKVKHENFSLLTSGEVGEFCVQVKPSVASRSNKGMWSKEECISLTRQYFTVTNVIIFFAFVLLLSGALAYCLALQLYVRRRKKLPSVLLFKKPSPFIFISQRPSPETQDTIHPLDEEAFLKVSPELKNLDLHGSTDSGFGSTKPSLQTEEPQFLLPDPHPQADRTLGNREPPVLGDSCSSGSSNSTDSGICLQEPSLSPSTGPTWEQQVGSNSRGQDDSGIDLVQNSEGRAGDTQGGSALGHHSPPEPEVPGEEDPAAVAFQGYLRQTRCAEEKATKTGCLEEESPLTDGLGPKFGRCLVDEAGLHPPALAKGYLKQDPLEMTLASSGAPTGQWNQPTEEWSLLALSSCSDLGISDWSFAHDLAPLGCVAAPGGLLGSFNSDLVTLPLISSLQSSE

[4] = tested on: IL-10R on U937 cells; assay: Surface staining of IL-10 receptor (PE anti-IL10R antibody) on U937 cells by flow cytometry; assay type: cell-based, human; conditions: U937 stimulated overnight with LPS (4×10^−3 μM); P1 4.5 μM, P2 4.1 μM, P3 5.6 μM, P4 4.2 μM; MFI by flow cytometry
Experimental: Human macrophage cell line U937 was maintained in complete RPMI 1640 media (Gibco) supplemented with 10% heat inactivated FCS, 100 U of penicillin/ml and 100 μg of streptomycin/ml and were cultured at 37°C with 5% CO2.
In vitro stimulation of U937 cells: 2–5×10^5 of U937 cells were cultured in 1 mL of RPMI with 10% human serum containing 100 U of ampicillin and 100 U of streptomycin. The U937 cells were either unstimulated or stimulated with 4×10^−3 μM of LPS (Sigma, Cat. L3024-5MG) overnight, in the presence of different concentration of P1, P2 or P3 or anti-IL-10 (10 μg/mL, ~0.3 μM) or anti-IL-10R (10 μg/mL, ~0.1 μM) antibodies. Supernatants were collected and stored at -80°C till use.
Surface staining of IL-10 receptor on U937 cell membrane: 2–5×10^5 of U937 cells were stained with PE conjugated anti-IL10R antibody for 30 minutes on ice, then washed with PBS with 2% of FCS and analysed with an Acuri flowcytometor (BD, USA) as described previously.

[5] = tested on: MC/9 cells; assay: MC/9 cell proliferation, MTT assay; assay type: cell-based, mouse; conditions: 5×10^−5 μM IL-10, 1×10^4 cells, 48 h, media with 2×10^−5 μM IL4
Experimental: Murine mast cell MC/9 cell line was purchased from ATCC, USA and cultured following the protocols in the product sheets. Briefly, MC/9 cells were cultured in complete RPMI 1640 media (Gibco) supplemented with 10% heat inactivated fetal calf serum (FCS), 100 U of penicillin/ml and 100 μg of streptomycin/ml and were cultured at 37°C with 5% CO2 and 5 ng of murine IL-4 or 1 ng of human IL-10 as recommended by ATCC, with or without adding P1, P2 or P3 respectively. MC/9 cell proliferation was determined by MTT assay (purchased from ATCC, USA) following the instruction of manufacturer.
Mouse mast cell line MC/9 growth is IL-10 dependent. We therefore investigated whether P1 or P2 is able to prevent IL-10 mediated MC/9 cell growth. MC/9 cells were cultured at different numbers for 48 hours and cell proliferation was measured by MTT assay, which measures the MC/9 cell proliferation. […] Thus, cell number of 1×10^4 was selected in the assay.

FFKKFFKKFFKKFFKK [P1]
Kd [1]: 8.94 ± 0.37 µM | cell death, 7-AAD (in words) [2]: there is no significant difference for cell death in the presence or absence of P1 or P2 | Kd [3]: 16 ± 1.95 µM

FFRRFFRRFFRRFFRR [P2]
cell death, 7-AAD (in words) [2]: there is no significant difference for cell death in the presence or absence of P1 or P2

Lipopolysaccharide [LPS]
binding of PE anti-IL-10R antibody (clone 3F9) to IL-10R on U937 cells [4]: More antibody binds to IL-10R1 after LPS stimulation, and is positively correlated with the dose of LPS

B1: IL-10: Human IL10 purchased from ebioscience (Cat. No: BMS/346) (protein)
chain: SPGQGTQSENSCTHFPGNLPNMLRDLRDAFSRVKTFFQMKDQLDNLLLKESLLEDFKGYLGCQALSEMIQFYLEEVMPQAENQDPDIKAHVNSLGENLKTLRLRLRRCHRFLPCENKSKAVEQVKNAFNKLQEKGIYKAMSEFDIFINYIEAYMTMKIRN
increase in MC/9 cell proliferation [5]: approximately 133%
